Results on one molecule are retold here after patent US6355435B1, “Methods for detecting and enumerating Campylobacter jejuni in environmental samples and for identifying antibiotic-resistant strains” (priority 1999, dated 2002).

Structures are written as SMILES.

The test system of test [1] is ciprofloxacin-resistant Campylobacter jejuni mutants (C to T transition in codon 86 of gyrA). Kind of test: Growth of selected mutants on BASB medium containing ciprofloxacin. Type of test: cell-based. The conditions noted are these: ciprofloxacin at 16 μg/ml; 12 Campylobacter mutants.
For test [2], the system named is Campylobacter jejuni strain cj49349. Kind of test: Growth on BASB agar supplemented with ciprofloxacin. The class given is cell-based. Particulars: ciprofloxacin at 16 μg per ml; wild-type strain cj49349.
Test [3] relates to Campylobacter jejuni with high-level ciprofloxacin resistance. The conditions noted are these: gyrA codon 86 C to T transition; cited from earlier work.

Usually MIC stands for the lowest concentration found to suppress growth. For `O=C(O)c1cn(C2CC2)c2cc(N3CCNCC3)c(F)cc2c1=O` [ciprofloxacin], the “growth on BASB medium containing ciprofloxacin” value in test [1] is “able to grow”. In addition, the “growth on BASB agar supplemented with ciprofloxacin” value in test [2] is listed as “unable to grow”. Besides, in test [3], the MIC was at least 16 µg/mL.
